US6706663B2, “Herbicidal 3-heterocyclic substituted benzisothiazole and benzisoxazole compounds” (Wyeth, priority 2000, dated 2004)

How the values were obtained:
[1] = tested on: TRZAWR (Wheat, Winter, cv Riband); assay: Preemergence herbicidal evaluation; assay type: in vivo, Triticum aestivum; details: rated 4-5 weeks after treatment
In short: (§1)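 Rating 0–9, visual, vs control; 4–5 wk after spraying seeded cups with compound in aq. acetone; conventional greenhouse care.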

SETVI (Setaria viridis) = assay: Preemergence herbicidal evaluation; assay type: in vivo, (L.) Beau; details: rated 4-5 weeks after treatment
In short: as §1

[2] = tested on: ECHCG (Echinochloa crus-galli); assay: Preemergence herbicidal evaluation; assay type: in vivo, (L.) Beau; details: rated 4-5 weeks after treatment
In short: as §1

[3] = tested on: MOOVA (Monochoria vaginalis); assay: Flooded paddy, preemergence weed control; assay type: in vivo, Presl.; details: rated 3-4 weeks after treatment, 0-9 rating scale
In short: (§2)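 Plants were established from seed or propagating organs in flooded silt loam, with the water surface held 1.5 to 3 cm above the soil for the entire experiment. Injury was assessed visually against a control and given a 0-9 score.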

[4] = tested on: GLXMAW (Soybean, Williams); assay: Postemergence herbicidal evaluation; assay type: in vivo, Glycine max, (L.) Merr. cv Williams
In short: (§3)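 Visual 0–9 injury scores versus control plants, covering stand, vigour, malformation, size, chlorosis and general appearance, taken four to five weeks post-spray and averaged over replicate tests. Plants were sprayed at roughly two weeks old and held on greenhouse benches.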

[5] = tested on: AMBEL (Ambrosia artemisifolia); assay: Preemergence herbicidal evaluation; assay type: in vivo, L.; details: rated 4-5 weeks after treatment
In short: as §1

[6] = tested on: CHEAL (Chenopodium album); assay: Preemergence herbicidal evaluation; assay type: in vivo, L.; details: rated 4-5 weeks after treatment
In short: as §1

[7] = tested on: CASOB (Cassia obtusifolia); assay: Preemergence herbicidal evaluation; assay type: in vivo, L.; details: rated 4-5 weeks after treatment
In short: as §1

[8] = tested on: GLXMAW (Soybean, Williams); assay: Preemergence herbicidal evaluation; assay type: in vivo, Glycine max, (L.) Merr. cv Williams; details: rated 4-5 weeks after treatment
CYPIR (Cyperus iria) = assay: Flooded paddy, preemergence weed control; assay type: in vivo; details: rated 3-4 weeks after treatment, 0-9 rating scale
In short: as §2

[9] = tested on: ABUTH (Abutilon theophrasti); assay: Postemergence herbicidal evaluation; assay type: in vivo, Medic.
In short: as §3

ZEAMX (Corn, Field) = assay: Preemergence herbicidal evaluation; assay type: in vivo, Zea mays, L.; details: rated 4-5 weeks after treatment
[10] = tested on: IPOHE (Ipomoea hederacea); assay: Postemergence herbicidal evaluation; assay type: in vivo, (L.) Jacq.
In short: as §3

ORYSAT (Rice, Tebonnet) [11] = assay: Postemergence herbicidal evaluation; assay type: in vivo, Oryza sativa, (L.) Tebonnet
In short: as §3

[12] = tested on: AMBEL (Ambrosia artemisifolia); assay: Postemergence herbicidal evaluation; assay type: in vivo, L.
In short: as §3

[13] = tested on: CHEAL (Chenopodium album); assay: Postemergence herbicidal evaluation; assay type: in vivo, L.
In short: as §3

[14] = tested on: CASOB (Cassia obtusifolia); assay: Postemergence herbicidal evaluation; assay type: in vivo, L.
In short: as §3

[15] = tested on: ABUTH (Abutilon theophrasti); assay: Preemergence herbicidal evaluation; assay type: in vivo, Medic.; details: rated 4-5 weeks after treatment
ORYSAT (Rice, Tebonnet) [16] = assay: Flooded paddy, post-transplant rice tolerance; assay type: in vivo, Oryza sativa, (L.) Tebonnet; details: flooded paddy, post-transplant rice, rated 3-4 weeks after treatment, 0-9 rating scale
In short: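 Two ten-day-old seedlings were transplanted into silt loam, flooded and held at 1.5 to 3 cm water above the soil before herbicide treatment. Pots stayed in the greenhouse at that water level. Injury was scored visually on a 0-9 scale versus untreated control.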

[17] = tested on: IPOHE (Ipomoea hederacea); assay: Preemergence herbicidal evaluation; assay type: in vivo, (L.) Jacq.; details: rated 4-5 weeks after treatment

SMILES: Cn1c(C(F)(F)F)cc(=O)n(-c2ccc3snc(C4OCCO4)c3c2)c1=O [Compound 45, 3-[3-(1,3-dioxolan-2-yl)-1,2-benzisothiazol-5-yl]-1-methyl-6-(trifluoromethyl)uracil]
- Preemergence herbicidal rating TRZAWR ([1]; Rate 0.0620 kg/ha): 9.0
- Preemergence herbicidal rating TRZAWR ([1]; Rate 0.1250 kg/ha): 9.0
- Preemergence herbicidal rating TRZAWR ([1]; Rate 0.2500 kg/ha): 9.0
- Preemergence herbicidal rating SETVI (SETVI (Setaria viridis); Rate 0.0620 kg/ha): 9.0
- Preemergence herbicidal rating SETVI (SETVI (Setaria viridis); Rate 0.1250 kg/ha): 9.0
- Preemergence herbicidal rating SETVI (SETVI (Setaria viridis); Rate 0.2500 kg/ha): 9.0
- Preemergence herbicidal rating ECHCG ([2]; Rate 0.0620 kg/ha): 9.0
- Preemergence herbicidal rating ECHCG ([2]; Rate 0.1250 kg/ha): 9.0
- Preemergence herbicidal rating ECHCG ([2]; Rate 0.2500 kg/ha): 9.0
- herbicidal rating, MOOVA ([3]; rate 0.0080 kg/ha): 4.5
- herbicidal rating, MOOVA ([3]; rate 0.0320 kg/ha): 9.0
- herbicidal rating, MOOVA ([3]; rate 0.1250 kg/ha): 9.0
- Postemergence herbicidal rating, GLXMAW ([4]; rate 0.0320 kg/ha): 8.8
- Postemergence herbicidal rating, GLXMAW ([4]; rate 0.0620 kg/ha): 8.8
- Preemergence herbicidal rating AMBEL ([5]; Rate 0.0620 kg/ha): 9.0
- Preemergence herbicidal rating AMBEL ([5]; Rate 0.1250 kg/ha): 9.0
- Preemergence herbicidal rating AMBEL ([5]; Rate 0.2500 kg/ha): 9.0
- Preemergence herbicidal rating CHEAL ([6]; Rate 0.0620 kg/ha): 9.0
- Preemergence herbicidal rating CHEAL ([6]; Rate 0.1250 kg/ha): 9.0
- Preemergence herbicidal rating CHEAL ([6]; Rate 0.2500 kg/ha): 9.0
- Preemergence herbicidal rating CASOB ([7]; Rate 0.0620 kg/ha): 8.7
- Preemergence herbicidal rating CASOB ([7]; Rate 0.1250 kg/ha): 9.0
- Preemergence herbicidal rating CASOB ([7]; Rate 0.2500 kg/ha): 9.0
- Preemergence herbicidal rating GLXMAW ([8]; Rate 0.0620 kg/ha): 9.0
- Preemergence herbicidal rating GLXMAW ([8]; Rate 0.1250 kg/ha): 9.0
- Preemergence herbicidal rating GLXMAW ([8]; Rate 0.2500 kg/ha): 9.0
- herbicidal rating, CYPIR (CYPIR (Cyperus iria); rate 0.0080 kg/ha): 9.0
- herbicidal rating, CYPIR (CYPIR (Cyperus iria); rate 0.0320 kg/ha): 9.0
- herbicidal rating, CYPIR (CYPIR (Cyperus iria); rate 0.1250 kg/ha): 9.0
- Postemergence herbicidal rating, ABUTH ([9]; rate 0.0320 kg/ha): 9.0
- Postemergence herbicidal rating, ABUTH ([9]; rate 0.0620 kg/ha): 9.0
- Preemergence herbicidal rating ZEAMX (ZEAMX (Corn, Field); Rate 0.0620 kg/ha): 8.8
- Preemergence herbicidal rating ZEAMX (ZEAMX (Corn, Field); Rate 0.1250 kg/ha): 9.0
- Preemergence herbicidal rating ZEAMX (ZEAMX (Corn, Field); Rate 0.2500 kg/ha): 8.7
- Postemergence herbicidal rating, IPOHE ([10]; rate 0.0320 kg/ha): 9.0
- Postemergence herbicidal rating, IPOHE ([10]; rate 0.0620 kg/ha): 9.0
- Postemergence herbicidal rating, ORYSAT (ORYSAT (Rice, Tebonnet) [11]; rate 0.0320 kg/ha): 4.3
- Postemergence herbicidal rating, ORYSAT (ORYSAT (Rice, Tebonnet) [11]; rate 0.0620 kg/ha): 5.2
- Postemergence herbicidal rating, AMBEL ([12]; rate 0.0320 kg/ha): 9.0
- Postemergence herbicidal rating, AMBEL ([12]; rate 0.0620 kg/ha): 9.0
- Postemergence herbicidal rating, CHEAL ([13]; rate 0.0320 kg/ha): 8.5
- Postemergence herbicidal rating, CHEAL ([13]; rate 0.0620 kg/ha): 9.0
- Postemergence herbicidal rating, CASOB ([14]; rate 0.0320 kg/ha): 5.0
- Postemergence herbicidal rating, CASOB ([14]; rate 0.0620 kg/ha): 9.0
- Preemergence herbicidal rating ABUTH ([15]; Rate 0.0620 kg/ha): 9.0
- Preemergence herbicidal rating ABUTH ([15]; Rate 0.1250 kg/ha): 9.0
- Preemergence herbicidal rating ABUTH ([15]; Rate 0.2500 kg/ha): 9.0
- herbicidal rating, ORYSAT (rice tolerance) (ORYSAT (Rice, Tebonnet) [16]; rate 0.0080 kg/ha): 8.5
- herbicidal rating, ORYSAT (rice tolerance) (ORYSAT (Rice, Tebonnet) [16]; rate 0.0320 kg/ha): 9.0
- herbicidal rating, ORYSAT (rice tolerance) (ORYSAT (Rice, Tebonnet) [16]; rate 0.1250 kg/ha): 9.0
- Preemergence herbicidal rating IPOHE ([17]; Rate 0.0620 kg/ha): 9.0
- Preemergence herbicidal rating IPOHE ([17]; Rate 0.1250 kg/ha): 9.0
- Preemergence herbicidal rating IPOHE ([17]; Rate 0.2500 kg/ha): 9.0
